These results are taken from patent US11628153B2, “Agent for preventing or amelioriting nocturia” (Kao Corporation, priority 2018, dated 2023).

The test system of the test is Spontaneously Hypertensive Rats (SHRs). As to the kind of experiment: Urination behavior recording in metabolic cages after 8 weeks of oral intake of rosmarinic acid-containing feed (urinary frequency, urine volume). Type of test: in vivo, rat. Particulars: for Mean urinary frequency of rats during rest period / Mean urine volume of rats during rest period / Mean urinary frequency of rats during activity period / Mean urine volume of rats during activity period: 0.5 mass % rosmarinic acid feed, 8 weeks, mean ± standard error, n=12; for Significant difference in mean urinary frequency, treatment vs control group / Significant difference in mean urine volume, treatment vs control group: Student-t test. The source says:
For the test, Spontaneously Hypertensive Rats (SHRs, see American Journal of Physiology, 1998, vol. 275, p. R1279-1286 and Neurourology and Urodynamics, 2005, vol. 24, p. 295-300) (42-week-old, female, obtained from Japan SLC) were used. SHRs in the treatment group (n=12) ingested, for 8 weeks, a rosmarinic acid-containing feed (composition: 0.5 mass % rosmarinic acid (obtained from Carbosynth, Inc.), 66 mass % starch, 20 mass % casein, 5 mass % corn oil, 4 mass % cellulose, 3.5 mass % mineral, and 1 mass % vitamin). SHRs in the control group (n=12) ingested, for 8 weeks, a rosmarinic acid-free feed (composition: 66.5 mass % starch, 20 mass % casein, 5 mass % corn oil, 4 mass % cellulose, 3.5 mass % mineral, and 1 mass % vitamin). Then, their urination behavior was recorded in metabolic cages. Note that, before the recording in the metabolic cages, 4-day adaptation period was provided, and they were reared individually. The urination behavior recording (measurement of the urinary frequency and the urine volume) was carried out under conditions with free access to feed and water and under conditions with a 12/12-h light/dark cycle. The urine volume was weighed with an electronic balance while the urine was collected every urination. Note that a past report (see Neurourology and Urodynamics, 2017, vol. 36, p. 1034-1038) was consulted; the start time of a light period corresponding to a rest period of each rat was set to ZT0; the light period was divided into two periods of ZT0-6 and ZT6-12; and the urinary frequency during each period was defined as an indicator for nocturia. In addition, a dark period corresponding to an activity period was divided into two periods of ZT12-18 and ZT18-24; and the urinary frequency during each period was defined as an indicator for daytime frequent urination. […] The results were means±standard errors. To compare the inter-group means, Student-t test was used.

Each structure is given as a SMILES string.

In the case of `O=C(/C=C/c1ccc(O)c(O)c1)O[C@H](Cc1ccc(O)c(O)c1)C(=O)O` [rosmarinic acid], for the setting “ZT0-6 (rest period)”, the “Mean urinary frequency of rats during rest period” value was found to be 2.5 ± 0.2 times/6 h; the “Mean urine volume of rats during rest period” value came out at 1.7 ± 0.1 mL/6 h; the “Significant difference in mean urinary frequency, treatment vs control group” value is “N.S”; the “Significant difference in mean urine volume, treatment vs control group” value is given as “N.S”. Besides, under “ZT6-12 (rest period)”, the “Mean urinary frequency of rats during rest period” value amounted to 2.4 ± 0.2 times/6 h; the “Mean urine volume of rats during rest period” value is 1.1 ± 0.1 mL/6 h; the “Significant difference in mean urine volume, treatment vs control group” value is “N.S”. Further, where the note is “ZT12-18 (activity period)”, the “Mean urinary frequency of rats during activity period” value came to 6.7 ± 1.1 times/6 h; the “Mean urine volume of rats during activity period” value is 2.4 ± 0.4 mL/6 h; the “Significant difference in mean urinary frequency, treatment vs control group” value is on record as “N.S”; the “Significant difference in mean urine volume, treatment vs control group” value was “N.S”. Besides, under “ZT18-24 (activity period)”, the “Mean urinary frequency of rats during activity period” value was 6.0 ± 0.7 times/6 h; the “Mean urine volume of rats during activity period” value turned out to be 2.4 ± 0.2 mL/6 h; the “Significant difference in mean urinary frequency, treatment vs control group” value is given as “N.S”; the “Significant difference in mean urine volume, treatment vs control group” value is reported as “N.S”. The “Significant difference in the mean urine volume during each time zone, treatment vs control group” value (all time zones (ZT0-24)) is recorded as “undetected”.
